{
  "source": "patent US12533428B2",
  "about": "“Multimodal fluorine-CY3/5/7-DOTA-hapten compositions, diagnostics, fluorescence guided surgery and radioimmunotherapy” (Memorial Sloan Kettering Cancer Center, priority 2019, dated 2026)",
  "key": {"SW-1222 tumor": {"test_system": "SW-1222 tumor", "experiment": "In vivo tumor uptake using 3-step PRIT", "set-up": "species or system mice", "settings": "for Tumor Uptake: SW-1222 tumor-bearing mice pretreated with anti-GPA33/anti-DOTA BsAb and DOTA-dendrimer clearing agent, in %ID/g", "procedure": "The in vivo tumor uptake of [F]Cy3D [^177Lu] ([^177Lu]-Compound 6) was analyzed in tumor-bearing (SW-1222) mice."}, "[1]": {"experiment": "In vivo biodistribution and pharmacokinetics in tumor free mice (gamma counter)", "procedure": "The in vivo biodistribution and pharmacokinetics of ([^177Lu]-Compound 6) and BnDOTA[^177Lu] was investigated in tumor free mice. See FIGS. 17A-17B and Tables 2 and 3. Mice were dosed with radiolabeled probes at t=0 and sacrificed at various time points. Organs were harvested and activity was counted by gamma counter. Tables 2-3 show the serial biodistribution data for the analyzed organs of Compound 6 and Compound 2, respectively. FIG. 17A overlays the time course in activity in either vital tissues (left panel) or the blood (right panel) between the two probes."}},
  "data": [
    {"smiles": "CC1(C)C(=CC=CC2=[N+](CCCCCC(=O)NCC[N+](C)(C)C[B-](F)(F)F)c3ccc(S(=O)(=O)[O-])cc3C2(C)C)N(CCCCCC(=O)Nc2ccc(CC3CN(CC(=O)[O-])CCN(CC(=O)[O-])CCN(CC(=O)[O-])CCN3CC(=O)[O-])cc2)c2ccc(S(=O)(=O)[O-])cc21.[177Lu+3]", "note": "(stereo not drawn) [[^177Lu]-Compound 6, [F]Cy3D[^177Lu]]", "values": [
      {"measurement": "Tumor Uptake", "setting": "SW-1222 tumor; 1 h", "value": "25.24 ± 4.49"},
      {"measurement": "Tumor Uptake", "setting": "SW-1222 tumor; 4 h", "value": "21.93 ± 2.25"},
      {"measurement": "Tumor Uptake", "setting": "SW-1222 tumor; 24 h", "value": "23.17 ± 4.83"},
      {"measurement": "Tumor Uptake", "setting": "SW-1222 tumor; 48 h", "value": "22.13 ± 5.37"},
      {"measurement": "Binding to BsAb-treated tumor in vivo compared to the standard BnDOTA[^177Lu]", "setting": "SW-1222 tumor; SW-1222 tumor-bearing mice, 3-step PRIT", "value": "equal specificity and efficacy"},
      {"measurement": "Uptake", "setting": "[1]; Blood, 1 h after dosing", "value": "0.122 ± 0.005", "unit": "% injected Dose/gram"},
      {"measurement": "Uptake", "setting": "[1]; Blood, 2 h after dosing", "value": "0.034 ± 0.005", "unit": "% injected Dose/gram"},
      {"measurement": "Uptake", "setting": "[1]; Blood, 4 h after dosing", "value": "0.014 ± 0.001", "unit": "% injected Dose/gram"},
      {"measurement": "Uptake", "setting": "[1]; Blood, 24 h after dosing", "value": "0.004 ± 0.002", "unit": "% injected Dose/gram"},
      {"measurement": "Uptake", "setting": "[1]; Blood, 48 h after dosing", "value": "0.003 ± 0", "unit": "% injected Dose/gram"},
      {"measurement": "Uptake", "setting": "[1]; Bone, 1 h after dosing", "value": "0.065 ± 0.009", "unit": "% injected Dose/gram"},
      {"measurement": "Uptake", "setting": "[1]; Bone, 2 h after dosing", "value": "0.043 ± 0.007", "unit": "% injected Dose/gram"},
      {"measurement": "Uptake", "setting": "[1]; Bone, 4 h after dosing", "value": "0.038 ± 0.012", "unit": "% injected Dose/gram"},
      {"measurement": "Uptake", "setting": "[1]; Bone, 24 h after dosing", "value": "0.019 ± 0.003", "unit": "% injected Dose/gram"},
      {"measurement": "Uptake", "setting": "[1]; Bone, 48 h after dosing", "value": "0.021 ± 0.001", "unit": "% injected Dose/gram"},
      {"measurement": "Uptake", "setting": "[1]; Brain, 1 h after dosing", "value": "0.007 ± 0.001", "unit": "% injected Dose/gram"},
      {"measurement": "Uptake", "setting": "[1]; Brain, 2 h after dosing", "value": "0.014 ± 0.01", "unit": "% injected Dose/gram"},
      {"measurement": "Uptake", "setting": "[1]; Brain, 4 h after dosing", "value": "0.004 ± 0", "unit": "% injected Dose/gram"},
      {"measurement": "Uptake", "setting": "[1]; Brain, 24 h after dosing", "value": "0.001 ± 0.001", "unit": "% injected Dose/gram"},
      {"measurement": "Uptake", "setting": "[1]; Brain, 48 h after dosing", "value": "0.001 ± 0", "unit": "% injected Dose/gram"},
      {"measurement": "Biodistribution, comparison of the two probes", "setting": "[1]; FIG. 17B", "value": "comparable biodistribution"},
      {"measurement": "Uptake", "setting": "[1]; Heart, 1 h after dosing", "value": "0.056 ± 0.006", "unit": "% injected Dose/gram"},
      {"measurement": "Uptake", "setting": "[1]; Heart, 2 h after dosing", "value": "0.027 ± 0.004", "unit": "% injected Dose/gram"},
      {"measurement": "Uptake", "setting": "[1]; Heart, 4 h after dosing", "value": "0.017 ± 0", "unit": "% injected Dose/gram"},
      {"measurement": "Uptake", "setting": "[1]; Heart, 24 h after dosing", "value": "0.008 ± 0.006", "unit": "% injected Dose/gram"},
      {"measurement": "Uptake", "setting": "[1]; Heart, 48 h after dosing", "value": "0.009 ± 0", "unit": "% injected Dose/gram"},
      {"measurement": "Uptake", "setting": "[1]; Kidneys, 1 h after dosing", "value": "1.021 ± 0.096", "unit": "% injected Dose/gram"},
      {"measurement": "Uptake", "setting": "[1]; Kidneys, 2 h after dosing", "value": "1.147 ± 0.184", "unit": "% injected Dose/gram"},
      {"measurement": "Uptake", "setting": "[1]; Kidneys, 4 h after dosing", "value": "0.989 ± 0.1", "unit": "% injected Dose/gram"},
      {"measurement": "Uptake", "setting": "[1]; Kidneys, 24 h after dosing", "value": "0.66 ± 0.07", "unit": "% injected Dose/gram"},
      {"measurement": "Uptake", "setting": "[1]; Kidneys, 48 h after dosing", "value": "0.5 ± 0.05", "unit": "% injected Dose/gram"},
      {"measurement": "Uptake", "setting": "[1]; Lg. Intestine, 1 h after dosing", "value": "0.046 ± 0.009", "unit": "% injected Dose/gram"},
      {"measurement": "Uptake", "setting": "[1]; Lg. Intestine, 2 h after dosing", "value": "2.577 ± 0.409", "unit": "% injected Dose/gram"},
      {"measurement": "Uptake", "setting": "[1]; Lg. Intestine, 4 h after dosing", "value": "2.356 ± 1.032", "unit": "% injected Dose/gram"},
      {"measurement": "Uptake", "setting": "[1]; Lg. Intestine, 24 h after dosing", "value": "0.047 ± 0.016", "unit": "% injected Dose/gram"},
      {"measurement": "Uptake", "setting": "[1]; Lg. Intestine, 48 h after dosing", "value": "0.035 ± 0.021", "unit": "% injected Dose/gram"},
      {"measurement": "Uptake", "setting": "[1]; Liver, 1 h after dosing", "value": "0.119 ± 0.015", "unit": "% injected Dose/gram"},
      {"measurement": "Uptake", "setting": "[1]; Liver, 2 h after dosing", "value": "0.12 ± 0.025", "unit": "% injected Dose/gram"},
      {"measurement": "Uptake", "setting": "[1]; Liver, 4 h after dosing", "value": "0.088 ± 0.009", "unit": "% injected Dose/gram"},
      {"measurement": "Uptake", "setting": "[1]; Liver, 24 h after dosing", "value": "0.063 ± 0.007", "unit": "% injected Dose/gram"},
      {"measurement": "Uptake", "setting": "[1]; Liver, 48 h after dosing", "value": "0.052 ± 0.007", "unit": "% injected Dose/gram"},
      {"measurement": "Uptake", "setting": "[1]; Lungs, 1 h after dosing", "value": "0.142 ± 0.017", "unit": "% injected Dose/gram"},
      {"measurement": "Uptake", "setting": "[1]; Lungs, 2 h after dosing", "value": "0.071 ± 0.01", "unit": "% injected Dose/gram"},
      {"measurement": "Uptake", "setting": "[1]; Lungs, 4 h after dosing", "value": "0.041 ± 0.004", "unit": "% injected Dose/gram"},
      {"measurement": "Uptake", "setting": "[1]; Lungs, 24 h after dosing", "value": "0.023 ± 0.005", "unit": "% injected Dose/gram"},
      {"measurement": "Uptake", "setting": "[1]; Lungs, 48 h after dosing", "value": "0.017 ± 0.001", "unit": "% injected Dose/gram"},
      {"measurement": "Uptake", "setting": "[1]; Muscle, 1 h after dosing", "value": "0.04 ± 0.009", "unit": "% injected Dose/gram"},
      {"measurement": "Uptake", "setting": "[1]; Muscle, 2 h after dosing", "value": "0.032 ± 0.014", "unit": "% injected Dose/gram"},
      {"measurement": "Uptake", "setting": "[1]; Muscle, 4 h after dosing", "value": "0.023 ± 0.013", "unit": "% injected Dose/gram"},
      {"measurement": "Uptake", "setting": "[1]; Muscle, 24 h after dosing", "value": "0.008 ± 0.003", "unit": "% injected Dose/gram"},
      {"measurement": "Uptake", "setting": "[1]; Muscle, 48 h after dosing", "value": "0.007 ± 0", "unit": "% injected Dose/gram"},
      {"measurement": "Uptake", "setting": "[1]; Sm. Intestine, 1 h after dosing", "value": "0.914 ± 0.311", "unit": "% injected Dose/gram"},
      {"measurement": "Uptake", "setting": "[1]; Sm. Intestine, 2 h after dosing", "value": "0.958 ± 0.379", "unit": "% injected Dose/gram"},
      {"measurement": "Uptake", "setting": "[1]; Sm. Intestine, 4 h after dosing", "value": "0.169 ± 0.258", "unit": "% injected Dose/gram"},
      {"measurement": "Uptake", "setting": "[1]; Sm. Intestine, 24 h after dosing", "value": "0.022 ± 0.007", "unit": "% injected Dose/gram"},
      {"measurement": "Uptake", "setting": "[1]; Sm. Intestine, 48 h after dosing", "value": "0.016 ± 0.003", "unit": "% injected Dose/gram"},
      {"measurement": "Uptake", "setting": "[1]; Spleen, 1 h after dosing", "value": "0.06 ± 0.008", "unit": "% injected Dose/gram"},
      {"measurement": "Uptake", "setting": "[1]; Spleen, 2 h after dosing", "value": "0.048 ± 0.021", "unit": "% injected Dose/gram"},
      {"measurement": "Uptake", "setting": "[1]; Spleen, 4 h after dosing", "value": "0.032 ± 0.004", "unit": "% injected Dose/gram"},
      {"measurement": "Uptake", "setting": "[1]; Spleen, 24 h after dosing", "value": "0.029 ± 0.002", "unit": "% injected Dose/gram"},
      {"measurement": "Uptake", "setting": "[1]; Spleen, 48 h after dosing", "value": "0.022 ± 0.001", "unit": "% injected Dose/gram"},
      {"measurement": "Uptake", "setting": "[1]; Stomach, 1 h after dosing", "value": "0.734 ± 1.363", "unit": "% injected Dose/gram"},
      {"measurement": "Uptake", "setting": "[1]; Stomach, 2 h after dosing", "value": "0.985 ± 0.861", "unit": "% injected Dose/gram"},
      {"measurement": "Uptake", "setting": "[1]; Stomach, 4 h after dosing", "value": "0.186 ± 0.256", "unit": "% injected Dose/gram"},
      {"measurement": "Uptake", "setting": "[1]; Stomach, 24 h after dosing", "value": "0.02 ± 0.011", "unit": "% injected Dose/gram"},
      {"measurement": "Uptake", "setting": "[1]; Stomach, 48 h after dosing", "value": "0.019 ± 0", "unit": "% injected Dose/gram"},
      {"measurement": "Uptake", "setting": "[1]; Tail, 1 h after dosing", "value": "0.279 ± 0.079", "unit": "% injected Dose/gram"},
      {"measurement": "Uptake", "setting": "[1]; Tail, 2 h after dosing", "value": "0.237 ± 0.128", "unit": "% injected Dose/gram"},
      {"measurement": "Uptake", "setting": "[1]; Tail, 4 h after dosing", "value": "0.154 ± 0.102", "unit": "% injected Dose/gram"},
      {"measurement": "Uptake", "setting": "[1]; Tail, 24 h after dosing", "value": "0.079 ± 0.026", "unit": "% injected Dose/gram"},
      {"measurement": "Uptake", "setting": "[1]; Tail, 48 h after dosing", "value": "0.018 ± 0.016", "unit": "% injected Dose/gram"},
      {"measurement": "Clearance (time course of activity in vital tissues and blood)", "setting": "[1]; comparison of the two probes", "value": "cleared at similar rates"}
    ]}
  ]
}
